From the supplement of paper PMC10627819

Assays:
[1] = system: S. aureus DSM 20231; assay: fitness (endpoint OD595 vs no drug) (fraction); higher = more growth
Method in brief: (§1)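 Fitness expresses the optical density reached at the stationary-phase transition as a fraction of the robust mean of no-drug control wells. It is capped at 1. Measurements were OD595 every 30 min for 14 h at 37 °C after inoculation of 384-well plates at OD595 0.01 (30 µl, or 55 µl for S. pneumoniae), minus the first reading.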

[2] = system: S. pneumoniae D39V; assay: as above
Method in brief: as §1
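Note: OD595 on entry to stationary phase over no-drug wells; at most 1.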

CC(=O)Oc1ccccc1C(=O)O [Acetylsalicylic acid] + COc1cccc2c1C(=O)c1c(O)c3c(c(O)c1C2=O)C[C@@](O)(C(=O)CO)C[C@@H]3O[C@H]1C[C@H](N)[C@H](O)[C@H](C)O1 [Doxorubicin]
fitness
Conditions | first compound 250 µg/mL | first compound 500 µg/mL | first compound 1000 µg/mL
[1], partner 0.625 µg/mL | 0.835 | 0.759 | 0.607
[1], partner 1.25 µg/mL | 0.798 | 0.725 | –
[1], partner 2.5 µg/mL | 0.783 | 0.71 | 0.586
[2], partner 0.25 µg/mL | 0.94 | 0.893 | 0.724
[2], partner 0.5 µg/mL | 0.945 | 0.904 | 0.751
[2], partner 1 µg/mL | 0.889 | 0.882 | 0.763

CC(=O)Oc1ccccc1C(=O)O [Acetylsalicylic acid] + CCC[C@@H]1C[C@@H](C(=O)N[C@@H]([C@H]2O[C@H](SC)[C@H](O)[C@@H](O)[C@H]2O)[C@H](C)Cl)N(C)C1 [Clindamycin]
fitness
Conditions | first compound 250 µg/mL | first compound 500 µg/mL | first compound 1000 µg/mL
[1], partner 0.0312 µg/mL | – | – | 0.28
[1], partner 0.0625 µg/mL | 0.143 | 0.169 | 0.114
[1], partner 0.125 µg/mL | 0.0488 | 0.0833 | 0.0683
[2], partner 0.0125 µg/mL | 0.759 | 0.697 | 0.508
[2], partner 0.015 µg/mL | 0.857 | 0.771 | 0.528
[2], partner 0.025 µg/mL | 0.468 | 0.435 | 0.37
[2], partner 0.03 µg/mL | 0.677 | 0.574 | 0.37
[2], partner 0.05 µg/mL | 0.164 | 0.166 | 0.129
[2], partner 0.06 µg/mL | 0.331 | 0.246 | 0.104

CC(=O)Oc1ccccc1C(=O)O [Acetylsalicylic acid] + Cc1cc(NS(=O)(=O)c2ccc(N)cc2)no1 [Sulfamethoxazol]
fitness
Conditions | first compound 250 µg/mL | first compound 500 µg/mL | first compound 1000 µg/mL
[1], partner 1 µg/mL | 0.862 | 0.683 | 0.53
[1], partner 2 µg/mL | 0.855 | – | 0.522
[1], partner 4 µg/mL | 0.844 | – | –
[2], partner 1 µg/mL | 0.941 | 0.905 | 0.78
[2], partner 2 µg/mL | 0.946 | 0.926 | 0.811
[2], partner 4 µg/mL | 0.909 | 0.872 | 0.842

CC(=O)Oc1ccccc1C(=O)O [Acetylsalicylic acid] + COc1c(N2C[C@@H]3CCCN[C@@H]3C2)c(F)cc2c(=O)c(C(=O)O)cn(C3CC3)c12 [Moxifloxacin]
fitness
Conditions | first compound 250 µg/mL | first compound 500 µg/mL | first compound 1000 µg/mL
[1], partner 0.0075 µg/mL | 0.799 | 0.703 | 0.577
[1], partner 0.015 µg/mL | 0.7 | 0.656 | 0.58
[1], partner 0.03 µg/mL | 0.649 | 0.623 | 0.578
[2], partner 0.005 µg/mL | 0.975 | 0.96 | –
[2], partner 0.01 µg/mL | 0.98 | 0.987 | 0.812
[2], partner 0.02 µg/mL | 0.932 | 0.94 | 0.829
[2], partner 0.0312 µg/mL | 0.188 | 0.192 | 0.216
[2], partner 0.0625 µg/mL | 0.17 | 0.142 | 0.137
[2], partner 0.125 µg/mL | 0.0443 | 0.0397 | 0.0308

fitness, [1], one replicate
Conditions | first compound 250 µg/mL | first compound 500 µg/mL | first compound 1000 µg/mL
partner 0.06 µg/mL | 0.647 | 0.627 | 0.584
partner 0.12 µg/mL | 0.532 | 0.536 | 0.529

CC(=O)Oc1ccccc1C(=O)O [Acetylsalicylic acid] + CO/N=C(\C(=O)N[C@@H]1C(=O)N2C(C(=O)O)=C(COC(C)=O)CS[C@H]12)c1csc(N)n1 [Cefotaxime]
fitness
Conditions | partner 0.0018 µg/mL | partner 0.0035 µg/mL | partner 0.007 µg/mL | partner 0.039 µg/mL | partner 0.078 µg/mL | partner 0.156 µg/mL | partner 0.312 µg/mL
[1], first compound 250 µg/mL | – | – | – | 0.706 | 0.695 | 0.641 | 0.605
[1], first compound 500 µg/mL | – | – | – | 0.614 | 0.608 | 0.561 | 0.507
[1], first compound 1000 µg/mL | – | – | – | 0.509 | 0.443 | 0.343 | 0.148
[2], first compound 250 µg/mL | 0.984 | 0.967 | 0.936 | – | – | – | –
[2], first compound 500 µg/mL | ≥ 1 | 0.992 | 0.962 | – | – | – | –
[2], first compound 1000 µg/mL | 0.97 | 0.89 | 0.823 | – | – | – | –

CC(=O)Oc1ccccc1C(=O)O [Acetylsalicylic acid] + CC1=C\[C@@H](O)CC(=O)Cc2nc(co2)C(=O)N2CCC=C2C(=O)O[C@H](C(C)C)[C@H](C)/C=C/C(=O)NC\C=C\1 [Virginiamycin M1]
fitness
Conditions | first compound 250 µg/mL | first compound 500 µg/mL | first compound 1000 µg/mL
[1], partner 0.0625 µg/mL | 0.86 | 0.764 | 0.564
[1], partner 0.125 µg/mL | 0.922 | – | –
[1], partner 0.25 µg/mL | 0.877 | 0.715 | 0.503
[2], partner 0.5 µg/mL | 0.967 | 0.964 | 0.872
[2], partner 1 µg/mL | 0.914 | 0.961 | –
[2], partner 2 µg/mL | 0.933 | 0.903 | –

fitness, one replicate
Conditions | first compound 250 µg/mL | first compound 500 µg/mL | first compound 1000 µg/mL
[1], partner 0.5 µg/mL | 0.776 | 0.789 | 0.371
[1], partner 1 µg/mL | 0.818 | 0.781 | 0.389
[2], partner 0.15 µg/mL | 0.954 | 0.988 | 0.949
[2], partner 0.3 µg/mL | 0.951 | 0.938 | 0.918

CC(=O)Oc1ccccc1C(=O)O [Acetylsalicylic acid] + CC(=O)NC[C@H]1CN(c2ccc(N3CCOCC3)c(F)c2)C(=O)O1 [Linezolid]
fitness
Conditions | first compound 250 µg/mL | first compound 500 µg/mL | first compound 1000 µg/mL
[1], partner 0.125 µg/mL | 0.868 | – | 0.509
[1], partner 0.25 µg/mL | 0.582 | 0.486 | 0.275
[1], partner 0.5 µg/mL | 0.203 | 0.159 | 0.117
[2], partner 0.105 µg/mL | 0.879 | 0.866 | 0.776
[2], partner 0.2 µg/mL | 0.675 | 0.623 | 0.463
[2], partner 0.21 µg/mL | 0.756 | 0.773 | 0.712
[2], partner 0.4 µg/mL | 0.598 | 0.582 | 0.439
[2], partner 0.42 µg/mL | 0.573 | 0.561 | 0.442
[2], partner 0.8 µg/mL | 0.252 | 0.24 | 0.208

[1], partner 1 µg/mL, one replicate
Conditions | fitness
first compound 250 µg/mL | 0.0592
first compound 500 µg/mL | 0.0468
first compound 1000 µg/mL | 0.0354

CN(C)[C@@H]1C(O)=C(C(N)=O)C(=O)[C@@]2(O)C(O)=C3C(=O)c4c(O)ccc(Cl)c4[C@@](C)(O)[C@H]3C[C@@H]12 [Chlortetracycline] + CO[C@@]12[C@H](COC(N)=O)C3=C(C(=O)C(C)=C(N)C3=O)N1C[C@@H]1N[C@@H]12 [Mitomycin C]
[1], first compound 0.006 µg/mL, one replicate
Conditions | fitness
partner 0.0156 µg/mL | 0.65
partner 0.0312 µg/mL | 0.64
partner 0.0625 µg/mL | 0.542

fitness
Conditions | first compound 0.012 µg/mL | first compound 0.024 µg/mL | first compound 0.048 µg/mL | first compound 0.375 µg/mL | first compound 0.75 µg/mL | first compound 1.5 µg/mL
[1], partner 0.0156 µg/mL | 0.55 | 0.288 | 0.0746 | – | – | –
[1], partner 0.0312 µg/mL | 0.52 | 0.224 | 0.0614 | – | – | –
[1], partner 0.0625 µg/mL | 0.384 | 0.174 | 0.17 | – | – | –
[2], partner 0.001075 µg/mL | 0.924 | 0.895 | 0.824 | – | – | –
[2], partner 0.002 µg/mL | – | – | – | 0.0654 | 0.0249 | 0.0576
[2], partner 0.00215 µg/mL | 0.853 | 0.832 | 0.788 | – | – | –
[2], partner 0.004 µg/mL | – | – | – | 0.0793 | 0.0699 | 0.0536
[2], partner 0.0043 µg/mL | 0.687 | 0.713 | 0.645 | – | – | –
[2], partner 0.008 µg/mL | – | – | – | 0.0339 | 0.0265 | 0.0168

CC(=O)Oc1ccccc1C(=O)O [Acetylsalicylic acid] + CCN(CC)CCOC(=O)c1ccc(N)cc1 [Procaine]
fitness
Conditions | partner 85.5 µg/mL | partner 171 µg/mL | partner 342 µg/mL
[1], first compound 250 µg/mL | 0.916 | 0.971 | 0.963
[1], first compound 500 µg/mL | 0.849 | 0.896 | –
[2], first compound 250 µg/mL | ≥ 1 | 0.989 | 0.966
[2], first compound 500 µg/mL | ≥ 1 | 0.995 | 0.97
[2], first compound 1000 µg/mL | 0.922 | 0.86 | 0.89

CC(=O)Oc1ccccc1C(=O)O [Acetylsalicylic acid] + CCC[C@@H]1C[C@@H](C(=O)N[C@@H]([C@H]2O[C@H](SC)[C@H](O)[C@@H](O)[C@H]2O)[C@@H](C)O)N(C)C1 [Lincomycin]
fitness
Conditions | partner 0.1 µg/mL | partner 0.2 µg/mL | partner 0.215 µg/mL | partner 0.4 µg/mL | partner 0.43 µg/mL | partner 0.8 µg/mL | partner 0.86 µg/mL
[1], first compound 250 µg/mL | 0.863 | 0.84 | – | – | – | – | –
[1], first compound 500 µg/mL | 0.81 | 0.795 | – | – | – | – | –
[1], first compound 1000 µg/mL | – | – | – | 0.204 | – | – | –
[2], first compound 250 µg/mL | – | 0.528 | 0.866 | 0.389 | 0.748 | 0.116 | 0.377
[2], first compound 500 µg/mL | – | 0.455 | 0.824 | 0.368 | 0.749 | 0.0711 | 0.389
[2], first compound 1000 µg/mL | – | 0.344 | 0.841 | 0.213 | 0.746 | 0.0378 | 0.35

CC(=O)Oc1ccccc1C(=O)O [Acetylsalicylic acid] + CO[C@@]12[C@H](COC(N)=O)C3=C(C(=O)C(C)=C(N)C3=O)N1C[C@@H]1N[C@@H]12 [Mitomycin C]
fitness
Conditions | first compound 250 µg/mL | first compound 500 µg/mL | first compound 1000 µg/mL
[1], partner 0.0156 µg/mL | 0.731 | 0.612 | 0.446
[1], partner 0.0312 µg/mL | 0.674 | 0.579 | –
[1], partner 0.0625 µg/mL | 0.559 | 0.483 | –
[2], partner 0.001075 µg/mL | ≥ 1 | ≥ 1 | ≥ 1
[2], partner 0.002 µg/mL | 0.703 | 0.673 | 0.416
[2], partner 0.00215 µg/mL | 0.888 | 0.904 | 0.868
[2], partner 0.004 µg/mL | 0.733 | 0.657 | 0.426
[2], partner 0.0043 µg/mL | 0.8 | 0.811 | 0.774
[2], partner 0.008 µg/mL | 0.548 | 0.454 | 0.335
